Test results from US8765721B2, “Composition comprising phosphatidyl serine and an antigen or allergen and the use thereof” (Vaccine Technology Limited, priority 2004, dated 2014).

How the values were obtained:
Assay type in all cases: in vivo, rat
[1] = system: IgE; assay: Ovalbumin-specific IgE ELISA of serum of immunised rats; conditions: pooled group serum
Description: (§1) Rats were injected with vaccine compositions comprising the ovalbumin antigen with and without di-oleoyl phosphatidyl serine, lyso-oleoyl phosphatidyl serine or stearoyl(X1)-arachidonoyl(X2) phosphatidyl serine and the concentrations of IgE, IgA and IgG are compared.
(§2) The animals were acclimatised for a period of 5 days prior to dosing. During the acclimatisation period animals were observed twice daily during the working week and once on each day during the weekend to evaluate the health status of the animals. Rats were then allocated to the following dose groups using computer-generated random order numbers.
(§3) On day 0, 20 μg of ovalbumin (OA) in phosphate buffered saline (PBS) with alhydrogel (AHG) adjuvant in a final volume of 0.5 mL was administered.
(§4) On days 21 and 42, 20 μg of ovalbumin (OA) in phosphate buffered saline (PBS) with the relevant test compound in a final volume of 0.5 ml was administered.
(§5) In each case, 0.5 mL of inoculum was injected subcutaneously into the scruff of the neck.
(§6) […] A blood sample was also taken from each animal on Days 15, 22, 29, 36, 43, 50, 57 and 64.
(§7) Serum was prepared by centrifugation of the blood sample at 2,500 rpm for 10 minutes and frozen at −20° C. The samples were then analysed by ELISA to establish the concentration of IgE, IgA and IgG1, IgG2a and IgG2b.
(§8) The purpose of an ELISA is to determine whether a particular protein is present in a sample and then enables quantification of how much is present. By coating the bottom of wells with ovalbumin (OVA) it is possible to bind anti-OVA specific antibodies. To detect only anti-OVA IgA antibodies anti-rat IgA conjugated to HRP was used as a secondary antibody. Quantification of specific antibodies in the rat sera samples was performed using antibody titrations. The data was reported as endpoint titers. Endpoint titers are defined as the last serum dilution giving an optical density value equal to twice the background optical density for the ELISA plate (buffer).

[2] = system: IgG2a; assay: Ovalbumin-specific IgG2a ELISA of serum of immunised rats; conditions: pooled group serum
Description: as §1, §2, §3, §4
(§9) In each case, 0.5 mL of inoculum was injected subcutaneously into the scruff of the neck. […]
as §7, §8

[3] = system: IgG1; assay: Ovalbumin-specific IgG1 ELISA of serum of immunised rats; conditions: pooled group serum
Description: as §1, §2, §3, §4, §9, §7
The purpose of an ELISA is to determine whether a particular protein is present in a sample and then enables quantification of how much is present. By coating the bottom of wells with ovalbumin (OVA) it is possible to bind anti-OVA specific antibodies. […] Quantification of specific antibodies in the rat sera samples was performed using antibody titrations. The data was reported as endpoint titers. Endpoint titers are defined as the last serum dilution giving an optical density value equal to twice the background optical density for the ELISA plate (buffer).

[4] = system: IgA; assay: Ovalbumin-specific IgA ELISA of serum of immunised rats; conditions: Day 1; 50 ug with 20 μg Ova s.c. on days 21 and 42; pooled group serum
[5] = system: IgG2b; assay: Ovalbumin-specific IgG2b ELISA of serum of immunised rats; conditions: pooled group serum
Description: as §1, §2, §3, §4, §5, §6, §7, §8

[6] = system: IgE; assay: Ovalbumin-specific IgE ELISA of serum of immunised rats; conditions: Day 1; 250 ug with 20 μg Ova s.c. on days 21 and 42; pooled group serum
[7] = system: IgA; assay: Ovalbumin-specific IgA ELISA of serum of immunised rats; conditions: pooled group serum
Description: as §1, §2, §3, §4, §5
On Day 0 a pre-inoculation blood sample was taken. A blood sample was also taken from each animal on Days 15, 22, 29, 36, 43, 50, 57 and 64.
as §7, §8

[8] = Day 1, 50 ug with 20 μg Ova s.c. on days 21 and 42
[9] = Day 15, 50 ug with 20 μg Ova s.c. on days 21 and 42
[10] = Day 15, 250 ug with 20 μg Ova s.c. on days 21 and 42
[11] = Day 22, 50 ug with 20 μg Ova s.c. on days 21 and 42
[12] = Day 22, 250 ug with 20 μg Ova s.c. on days 21 and 42
[13] = Day 29, 50 ug with 20 μg Ova s.c. on days 21 and 42
[14] = Day 29, 250 ug with 20 μg Ova s.c. on days 21 and 42
[15] = Day 36, 50 ug with 20 μg Ova s.c. on days 21 and 42
[16] = Day 36, 250 ug with 20 μg Ova s.c. on days 21 and 42
[17] = Day 43, 50 ug with 20 μg Ova s.c. on days 21 and 42
[18] = Day 43, 250 ug with 20 μg Ova s.c. on days 21 and 42
[19] = Day 50, 50 ug with 20 μg Ova s.c. on days 21 and 42
[20] = Day 50, 250 ug with 20 μg Ova s.c. on days 21 and 42
[21] = Day 57, 50 ug with 20 μg Ova s.c. on days 21 and 42
[22] = Day 57, 250 ug with 20 μg Ova s.c. on days 21 and 42
[23] = Day 64, 50 ug with 20 μg Ova s.c. on days 21 and 42
[24] = Day 64, 250 ug with 20 μg Ova s.c. on days 21 and 42
[25] = Day 1, 250 ug with 20 μg Ova s.c. on days 21 and 42

Compound `CCCCCCCC/C=C\CCCCCCCC(=O)OC[C@@H](O)COP(=O)(O)OC[C@H](N)C(=O)O` [VT002, Lyso oleoyl phosphatidyl serine] has an IgE endpoint titer [1, 8] of 0, an IgE endpoint titer [1, 9] of 0 and an IgE endpoint titer [1, 10] of 0. For the same compound, the IgE endpoint titer [1, 11] was 0, the IgE endpoint titer [1, 12] was 0 and the IgE endpoint titer [1, 13] was 80. It also gave an IgE endpoint titer [1, 14] of 0, an IgE endpoint titer [1, 15] of 40 and an IgE endpoint titer [1, 16] of 20. The IgE endpoint titer [1, 17] was 80, the IgE endpoint titer [1, 18] was 40 and the IgE endpoint titer [1, 19] was 1280. For the same compound, the IgE endpoint titer [1, 20] was 640, the IgE endpoint titer [1, 21] was 320 and the IgE endpoint titer [1, 22] was 160. The IgE endpoint titer [1, 23] was 160, the IgE endpoint titer [1, 24] was 160 and the IgG2a endpoint titer [2, 8] was 0. The IgG2a endpoint titer [2, 25] was 0, the IgG2a endpoint titer [2, 9] was 40 and the IgG2a endpoint titer [2, 10] was 80. For the same compound, the IgG2a endpoint titer [2, 11] was 1280, the IgG2a endpoint titer [2, 12] was 640 and the IgG2a endpoint titer [2, 13] was 2560. The IgG2a endpoint titer [2, 14] was 1280, the IgG2a endpoint titer [2, 15] was 5120 and the IgG2a endpoint titer [2, 16] was 2560. For the same compound, the IgG2a endpoint titer [2, 17] was 5120, the IgG2a endpoint titer [2, 18] was 2560 and the IgG2a endpoint titer [2, 19] was 20480. For the same compound, the IgG2a endpoint titer [2, 20] was 20480, the IgG2a endpoint titer [2, 21] was 20480 and the IgG2a endpoint titer [2, 22] was 20480. For the same compound, the IgG2a endpoint titer [2, 23] was 20480, the IgG2a endpoint titer [2, 24] was 20480 and the IgG1 endpoint titer [3, 8] was 0. For the same compound, the IgG1 endpoint titer [3, 25] was 0, the IgG1 endpoint titer [3, 9] was 320 and the IgG1 endpoint titer [3, 10] was 640. The IgG1 endpoint titer [3, 11] was 2560, the IgG1 endpoint titer [3, 12] was 2560 and the IgG1 endpoint titer [3, 13] was 10240. It also gave an IgG1 endpoint titer [3, 14] of 5120, an IgG1 endpoint titer [3, 15] of 20480 and an IgG1 endpoint titer [3, 16] of 20480. The IgG1 endpoint titer [3, 17] was 20480, the IgG1 endpoint titer [3, 18] was 10240 and the IgG1 endpoint titer [3, 19] was 40960. The IgG1 endpoint titer [3, 20] was 20480, the IgG1 endpoint titer [3, 21] was 40960 and the IgG1 endpoint titer [3, 22] was 40960. For the same compound, the IgG1 endpoint titer [3, 23] was 40960, the IgG1 endpoint titer [3, 24] was 40960 and the IgA endpoint titer [4] was 0. For the same compound, the IgG2b endpoint titer [5, 8] was 0, the IgG2b endpoint titer [5, 25] was 0 and the IgG2b endpoint titer [5, 9] was 0. It also gave an IgG2b endpoint titer [5, 10] of 40, an IgG2b endpoint titer [5, 11] of 0 and an IgG2b endpoint titer [5, 12] of 80. For the same compound, the IgG2b endpoint titer [5, 13] was 160, the IgG2b endpoint titer [5, 14] was 40 and the IgG2b endpoint titer [5, 15] was 320. For the same compound, the IgG2b endpoint titer [5, 16] was 320, the IgG2b endpoint titer [5, 17] was 640 and the IgG2b endpoint titer [5, 18] was 640. For the same compound, the IgG2b endpoint titer [5, 19] was 640, the IgG2b endpoint titer [5, 20] was 5120 and the IgG2b endpoint titer [5, 21] was 2560. For the same compound, the IgG2b endpoint titer [5, 22] was 5120, the IgG2b endpoint titer [5, 23] was 1280 and the IgG2b endpoint titer [5, 24] was 2560. It also gave an IgE endpoint titer [6] of 0, an IgA endpoint titer [7, 25] of 0 and an IgA endpoint titer [7, 9] of 0. It also gave an IgA endpoint titer [7, 10] of 0, an IgA endpoint titer [7, 11] of 0 and an IgA endpoint titer [7, 12] of 0. It also gave an IgA endpoint titer [7, 13] of 0, an IgA endpoint titer [7, 14] of 0 and an IgA endpoint titer [7, 15] of 160. The IgA endpoint titer [7, 16] was 80, the IgA endpoint titer [7, 17] was 320 and the IgA endpoint titer [7, 18] was 160. For the same compound, the IgA endpoint titer [7, 19] was 2560, the IgA endpoint titer [7, 20] was 1280 and the IgA endpoint titer [7, 21] was 1280. It also gave an IgA endpoint titer [7, 22] of 1280, an IgA endpoint titer [7, 23] of 2560 and an IgA endpoint titer [7, 24] of 1280.
